Laboratory results from patent EP4678629A1, “IONIZABLE LIPID MOLECULE, PREPARATION METHOD THEREFOR AND USE THEREOF” (Maxirna (Shanghai) Pharmaceutical Co., Ltd., priority 2023, dated 2024).

Experiments:
DC2.4 cells = assay: In vitro transfection of cells with eGFP-mRNA lipid nanoparticle (LNP preparation), fluorescence imaging and flow cytometry; assay type: cell-based, mouse; settings: eGFP positivity rate, DC2.4 cells, 200 ng of mRNA per well, after 24 hours
Description: (§1) This example used mouse bone marrow-derived dendritic cells DC2.4 (purchased from Millipore) as the validation cell line for a lipid nanoparticle transfection experiment. DC2.4 cells adhered to the wall for growth. All operational steps of cell culture strictly followed the prescribed procedures, using sterile reagents for aseptic operations under a sterile workbench. The main operational steps involved were as follows: • 1) Cell recovery: the preserved cell cryopreservation solution was removed from the -80 °C freezer and immediately placed in a 37 °C water bath for rapid and continuous shaking, allowing it to completely melt within one minute. Fresh culture medium was added to a 15 mL centrifuge tube in advance, and the cell fluid was added to the centrifuge tube in a biosafety cabinet. A centrifuge tube of the same mass was taken, placed symmetrically in the centrifuge, and centrifuged at low speed for 5 minutes at 1200 rpm. After centrifugation, the upper clear liquid was removed, and an appropriate amount of culture medium was slowly added along the tube wall. After the cells were gently blown and dispersed evenly, the cell suspension was drawn and added to the prepared culture bottle. The state and distribution of cells in the early stage of recovery were observed under a microscope. The culture bottle was incubated in a 5% CO2 incubator at 37 °C, and the recovery time was recorded. • 2) Cell passaging: Under a microscope, if the cell density in the field of view reached 80%-90%, cells could be passaged and cultured. Adherent cells required trypsin digestion. In order to avoid residual serum in the culture medium reducing trypsin activity, the original culture medium was removed, and DPBS solution was added to wash once. After suctioning out the DPBS solution, trypsin was added to degrade the protein at the intercellular junction, thereby separating the cells and facilitating further cultivation. The mixture was gently shaken well and placed into the incubator for digestion for 2-3 minutes. After digestion was complete, an appropriate amount of culture medium was immediately added to the original culture dish to terminate digestion. Finally, a pipette was used to carefully blow off the cells and blow them until they were evenly dispersed, and then the cells were inoculated and subcultured in a certain proportion according to experimental requirements.
(§2) Transfection of DC2.4 cells • 1) DC2.4 cell recovery: the frozen DC2.4 cells were taken out from the -80 °C refrigerator and immediately put into a 37 °C water bath for rapid thawing. After melting, they were added to the preheated culture medium, and centrifuged at 1200 rpm for 5 minutes. The supernatant was discarded, and an appropriate amount of DMEM medium containing 10% FBS was added to resuspend the recovered DC2.4 cells, which were placed in a 37 °C, 5% CO2 incubator for activation culture. • 2) According to experimental requirements, DC2.4 cells were transfected into 24 well plates one day in advance. By counting cells, the number and viability of cells were recorded, and a cell suspension with 2 × 10^5 cells per well were taken. Then, a certain volume of DMEM medium containing 10% FBS was added and mixed evenly, wherein 1 mL was added per well for subsequent transfection experiments. • 3) After 24 hours, the culture medium was gently aspirated with a pipette 30 minutes in advance, and each well was washed with 1 mL of DPBS and aspirated. […] The mixture was placed in a 37 °C, 5% CO2 incubator for activation cultivation. • 6) After 24 hours, cell viability (%), eGFP positivity rate (%), and mean fluorescence intensity data were obtained through cell fluorescence imaging and flow cytometry.

[1] = as above; assay type: cell-based, mouse; settings: mouse, dc2.4 cells, 200 ng of mRNA per well, after 24 hours; read-out: Cell viability, %
Description: as §1, §2

[2] = Encapsulation efficiency of the lipid nanoparticle (eGFP mRNA) by Ribogreen method; assay type: physicochemical; settings: LNP encapsulating eGFP mRNA, ionizable lipid/DOPE/cholesterol/DMG-PEG2000 50/10/48.25/1.25 mol%, N/P 12
Procedure: (§3) The ionizable lipid compound and positive control 1 from Example I were dissolved in ethanol at a molar ratio of 50:10:48.25:1.25 with DOPE, cholesterol, and DMG-PEG2000 (all purchased from A.V.T (Shanghai) Pharmaceutical Co., Ltd.) to prepare an ethanol lipid solution. The enhanced green fluorescent protein (eGFP) mRNA was diluted in 20 mM citrate buffer (pH=6.1) to obtain an mRNA aqueous solution. By using a microfluidic device (Micro&Nano Biologics Co., Ltd., model: INano ™ L) mix ethanol lipid solution and mRNA aqueous solution in a volume ratio of 1:3 to prepare a lipid nanoparticle with a total lipid to mRNA N/P ratio of 12. The medium was replaced by ultrafiltration, ethanol was removed and volumed with DPBS. Finally, the lipid nanoparticle was filtered through a 0.2 µm sterile filter to obtain an LNP preparation encapsulating eGFP mRNA using ionizable lipid/DOPE/cholesterol/DMG-PEG2000 (50/10/48.25/1.25 mol%), with an mRNA content of 0.002 mg/ml-0.5 mg/mL.
(§4) Using Malvern Zetasizer Nano ZS (Malvern UK), the size and polydispersity index (PDI) of the lipid nanoparticle were determined by dynamic light scattering in 173° backscatter detection mode, and the encapsulation efficiency was measured by Ribogreen method.

[3] = Size and polydispersity index (PDI) of the lipid nanoparticle by dynamic light scattering; assay type: physicochemical; settings: LNP encapsulating eGFP mRNA, ionizable lipid/DOPE/cholesterol/DMG-PEG2000 50/10/48.25/1.25 mol%, N/P 12; for Particle size: in nm (unit assumed)
Procedure: as §3, §4

Structure (SMILES) | Positive rate, % (DC2.4 cells) [%] | viability at 24 h [1] [%] | Encapsulation rate, % [2] [%] | PDI [3] | Particle size [3]
CCCCCCCCCCCCOC(=O)CCCCCN(CCCCO)CCCN(CCCCCC(=O)OCCCCCCCCCCCC)CCCCCC(=O)OCCCCCCCCCCCC [Example 46, Didodecyl 6,6'-((3-((6-(dodecyloxy)-6-oxohexyl)(4-hydroxybutyl)amino)propyl)azanediyl)dihexanoate] | 96.64 | 97.4 | 99.86 | 0.22 | 72.75
CCCCCCCCCCCCCCOC(=O)CCCCCCCN(CCCCO)CCCN(CCCCCCCC(=O)OCCCCCCCCCCCCCC)CCCCCCCC(=O)OCCCCCCCCCCCCCC [Example 61, Ditetradecyl 8,8'-((3-((4-hydroxybutyl)(8-oxo-8-(tetradecyloxy)octyl)amino)propyl)azanediyl)dioctanoate] | 95.85 | 71.2 | 97.38 | 0.13 | 82.47
CC/C=C\CCCCCOC(=O)CCCCCCCN(CCO)CCCN(CCCCCCCC(=O)OCCCCC/C=C\CC)CCCCCCCC(=O)OCCCCC/C=C\CC [Example 8, Di((Z)-non-6-en-1-yl)8,8'-((3-((2-hydroxyethyl)(8-(((Z)-non-6-en-1-yl)oxo)-8-oxooctyl)amino)propyl)azanediyl)dioctanoate] | 82.12 | 63.2 | 80.59 | 0.21 | –
CCCCCCCCCCCCCOC(=O)CCCCCCN(CCO)CCCN(CCCCCCC(=O)OCCCCCCCCCCCCC)CCCCCCC(=O)OCCCCCCCCCCCCC [Example 33] | 95.18 | 96.4 | 98.96 | 0.13 | –
CCCCC/C=C\C/C=C\CCCCCCCCOC(=O)CCCCCCN(CCCO)CCCN(CCCCCCC(=O)OCCCCCCCC/C=C\C/C=C\CCCCC)CCCCCCC(=O)OCCCCCCCC/C=C\C/C=C\CCCCC [Example 114] | 91.74 | 93.4 | 92.78 | 0.16 | 89.25
CCCCCCCOC(=O)CCCCCCCN(CCO)CCCN(CCCCCCCC(=O)OCCCCCCC)CCCCCCCC(=O)OCCCCCCC [Example 4, Diheptyl 8,8'-((3-((8-(heptyloxy)-8-oxooctyl)(2-hydroxyethyl)amino)propyl)azanediyl)dioctanoate] | 78.26 | 75.9 | 60.89 | 0.25 | –
CCCCCCCCCOC(=O)CCCCCCCN(CCO)CCCN(CCCCCCCC(=O)OCCCCCCCCC)CCCCCCCC(=O)OCCCCCCCCC [Example 9, Dinonyl 8,8'-((3-((2-hydroxyethyl)(8-(nonoxy)-8-oxooctyl)amino)propyl)azanediyl)dioctanoate] | 83.84 | 55.6 | 78.69 | 0.22 | –
CCCCCCCCCCCOC(=O)CCCCCCN(CCO)CCCN(CCCCCCC(=O)OCCCCCCCCCCC)CCCCCCC(=O)OCCCCCCCCCCC [Example 32] | 95.28 | 96.6 | 99.30 | 0.13 | 83.34
CCCCCCCCCCCCCCOC(=O)CCCCCCN(CCCO)CCCN(CCCCCCC(=O)OCCCCCCCCCCCCCC)CCCCCCC(=O)OCCCCCCCCCCCCCC [Example 57, Ditetradecyl 7,7'-((3-((3-hydroxypropyl)(7-oxo-7-(tetradecyloxy)heptyl)amino)propyl)azanediyl)diheptanoate] | 97.36 | 76.9 | 99.36 | 0.17 | 68.32
CCCCCCCCCCCCCOC(=O)CCCCCN(CCCCO)CCCN(CCCCCC(=O)OCCCCCCCCCCCCC)CCCCCC(=O)OCCCCCCCCCCCCC [Example 31, 6,6'-((3-((4-hydroxybutyl)(6-oxo-6-(tridecyloxy)hexyl)amino)propyl)azadiyl)ditridecyl dihexanoate] | 97.43 | 94.4 | 99.36 | 0.15 | 84.05
CCCCCCCCCCCOC(=O)CCCCN(CCCCO)CCCN(CCCCC(=O)OCCCCCCCCCCC)CCCCC(=O)OCCCCCCCCCCC [Example 43, Diundecyl 5,5'-((3-((4-hydroxybutyl)(5-oxo-5-(undecyloxy)pentyl)amino)propyl)azahexyl)dipentanoate] | 97.48 | 88.2 | 87.08 | 0.14 | –
CCCCCCCCCCCCCOC(=O)CCCN(CCCCO)CCCN(CCCC(=O)OCCCCCCCCCCCCC)CCCC(=O)OCCCCCCCCCCCCC [Example 65, Ditridecyl 4,4'-((3-((4-hydroxybutyl)(4-oxo-4-(tridecyloxy)butyl)amino)propyl)azanediyl)dibutanoate] | 96.80 | 60.3 | 96.31 | 0.20 | 90.10
CCCCCCCCCCCCCCOC(=O)CCCCCN(CCO)CCCN(CCCCCC(=O)OCCCCCCCCCCCCCC)CCCCCC(=O)OCCCCCCCCCCCCCC [Example 53, Ditetradecyl 6,6'-((3-((2-hydroxyethyl)(6-oxo-6-(tetradecyloxy)hexyl)amino)propyl)azanediyl)dihexanoate] | 86.07 | 68.6 | 97.67 | 0.09 | 91.34
CCCCCCCCCCCCCOC(=O)CCCCCCCN(CCCO)CCCN(CCCCCCCC(=O)OCCCCCCCCCCCCC)CCCCCCCC(=O)OCCCCCCCCCCCCC [Example 29] | 95.33 | 96.7 | 99.55 | 0.16 | –
CCCCCCCCCCCCCCCOC(=O)CCCCCCCN(CCO)CCCN(CCCCCCCC(=O)OCCCCCCCCCCCCCCC)CCCCCCCC(=O)OCCCCCCCCCCCCCCC [Example 22, Dipentadecyl 8,8'-((3-((2-hydroxyethyl)(8-oxo-8-(pentadecyloxy)octyl)amino)propyl)azanediyl)dioctanoate] | 98.21 | 95.1 | 78.46 | 0.11 | –
CCCCCCCCCCCCCCOC(=O)CCCCCN(CCCCO)CCCN(CCCCCC(=O)OCCCCCCCCCCCCCC)CCCCCC(=O)OCCCCCCCCCCCCCC [Example 55, Ditetradecyl 6,6'-((3-((4-hydroxybutyl)(6-oxo-6-(tetradecyloxy)hexyl)amino)propyl)azanediyl)dihexanoate] | 92.64 | 86.6 | 98.32 | 0.10 | 71.95
